Reference: patent US5914319A, “Antithrombotic agents” (Eli Lilly and Company, priority 1995, dated 1999)
Where a name gives a salt, the structure may show the parent alone. Read-outs that look alike come from different tables or passages of the source.

Legend:
[1] = early clinical studies, Simoons et al., Circulation, 90, I-231 (1994); cited from earlier work
[2] = Index of bioavailability (% Relative Activity from plasma TT time course); type: in vivo; conditions: dose-adjusted AUC of plasma TT time course, p.o. versus i.v. bolus
Description: Parke Davis) at 37° C. […] Assays are done in duplicate and averaged. […] Each sample population represented alternating sequential time points.

Human plasma [3] = assay: Human plasma anticoagulation, thrombin time (TT); type: biochemical; conditions: concentration required to double the thrombin time, linear extrapolation
Method in brief: (§1)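 Citrated human plasma + cpd (broad conc. range); instrument clot timing. PT: saline/Thromboplastin-C. APTT: Actin 120 s, then CaCl2 0.02M. TT: saline/bovine thrombin 10 NIH units/mL. Value = conc. doubling clotting time, linear extrapolation.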

human thrombin = human thrombin (Homo sapiens, UniProt P00734); assay: Inhibition of the amidase activity of thrombin (Kass); type: biochemical
Human plasma [4] = assay: Human plasma anticoagulation, prothrombin time (PT); type: biochemical; conditions: concentration required to double the PT, linear extrapolation
Method in brief: as §1

Human plasma [5] = assay: Human plasma anticoagulation, activated partial thromboplastin time (APTT); type: biochemical; conditions: concentration required to double the APTT, linear extrapolation
Method in brief: as §1

[6] = target: T1, tissue plasminogen activator (t-PA) (Homo sapiens, UniProt P00750); assay: Kass with fibrinolytic system proteases: t-PA; type: biochemical; conditions: substrate H-D-Ile-Pro-Arg-p-nitroanilide
T1 construct: purchased American Diagnostica, Greenwich, Conn
T1 sequence (P00750 36-562): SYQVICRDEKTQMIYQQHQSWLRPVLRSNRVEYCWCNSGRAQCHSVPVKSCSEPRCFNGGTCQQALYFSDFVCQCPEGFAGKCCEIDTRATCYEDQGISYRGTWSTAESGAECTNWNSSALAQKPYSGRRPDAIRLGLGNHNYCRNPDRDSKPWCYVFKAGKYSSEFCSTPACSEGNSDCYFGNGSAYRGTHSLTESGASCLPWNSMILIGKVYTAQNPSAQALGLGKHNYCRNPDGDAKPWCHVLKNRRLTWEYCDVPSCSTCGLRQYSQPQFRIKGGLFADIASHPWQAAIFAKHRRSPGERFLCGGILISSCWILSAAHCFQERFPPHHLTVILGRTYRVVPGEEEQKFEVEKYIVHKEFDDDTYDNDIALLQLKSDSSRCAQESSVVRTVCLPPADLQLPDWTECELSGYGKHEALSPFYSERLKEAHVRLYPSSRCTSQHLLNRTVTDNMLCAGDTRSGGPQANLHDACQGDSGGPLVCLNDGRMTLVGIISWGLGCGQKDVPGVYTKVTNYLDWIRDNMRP
Description: (§2) By substantially following the procedures described above for human thrombin, and using other human blood coagulation system serine proteases and proteases of the fibrinolytic system with the appropriate chromogenic substrates, identified below, selectivity of the compounds of the present invention with respect to the coagulation factor serine proteases and with respect to the fibrinolytic system serine proteases are evaluated as well as their substantial lack of interference with serine proteases of the fibrinolytic system. […] This would be important to the therapeutic use of such agents as an adjunct to streptokinase, t-PA or urokinase thrombolytic therapy and to the use of such agents as an endogenous fibrinolysis-sparing (with respect to t-PA and urokinase) antithrombotic agent. In addition to the lack of interference with the amidase activity of the fibrinolytic proteases, such fibrinolytic system sparing can be studied by the use of human plasma clots and their lysis by the respective fibrinolytic plasminogen activators.

factor Xa = target: T2, factor Xa (Homo sapiens, UniProt P00742); assay: Kass with other serine proteases: factor Xa; type: biochemical; conditions: substrate N-Benzoyl-Ile-Glu-Gly-Arg-p-nitroanilide
T2 construct: Human factors X, Xa, IXa, XIa, and XIIa are purchased; purchased Enzyme Research Laboratories, South Bend, Ind
T2 sequence (P00742 235-488 limits assumed): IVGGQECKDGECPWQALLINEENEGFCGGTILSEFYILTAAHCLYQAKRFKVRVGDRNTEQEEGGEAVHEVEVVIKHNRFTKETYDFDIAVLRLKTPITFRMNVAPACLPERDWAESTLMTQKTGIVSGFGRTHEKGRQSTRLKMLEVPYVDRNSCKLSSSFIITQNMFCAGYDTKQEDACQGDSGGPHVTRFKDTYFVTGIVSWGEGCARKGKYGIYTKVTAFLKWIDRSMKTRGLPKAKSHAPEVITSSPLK
T2 sequence (P00742 41-179 partner limits assumed): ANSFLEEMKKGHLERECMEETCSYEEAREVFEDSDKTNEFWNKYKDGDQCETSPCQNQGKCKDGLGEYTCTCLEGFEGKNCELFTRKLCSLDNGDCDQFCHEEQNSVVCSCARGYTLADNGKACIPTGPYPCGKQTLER
Description: (§3) Chromogenic substrates: N-Benzoyl-Ile-Glu-Gly-Arg-p-nitroanilide (for factor Xa); N-Cbz-D-Arg-Gly-Arg-p-nitroanilide (for factor IXa assay as the factor Xa substrate); Pyroglutamyl-Pro-Arg-p-nitroanilide (for Factor XIa and for aPC); H-D-Pro-Phe-Arg-p-nitroanilide (for factor XIIa); and Pyroglutamyl-Gly-Arg-p-nitroanilide (for urokinase); are purchased from KabiVitrum, Stockholm, Sweden, or from Midwest Biotech, Fishers, Ind. Bovine trypsin is purchased from Worthington Biochemicals, Freehold, N.J., and human plasma kallikrein from Kabi Vitrum, Stockholm, Sweden. Chromogenic substrate H-D-Pro-Phe-Arg-p-nitroanilide for plasma kallikrein is purchased from Kabi Vitrum, Stockholm, Sweden. […]

Human plasmin = target: T3, Human plasmin (Homo sapiens, UniProt P00747); assay: Kass with fibrinolytic system proteases: plasmin; type: biochemical; conditions: substrate H-D-Val-Leu-Lys-p-nitroanilide
T3 construct: Human plasmin is purchased from Boehringer Mannheim; purchased Boehringer Mannheim, Indianapolis, Ind
T3 sequence (P00747 581-810 limits assumed): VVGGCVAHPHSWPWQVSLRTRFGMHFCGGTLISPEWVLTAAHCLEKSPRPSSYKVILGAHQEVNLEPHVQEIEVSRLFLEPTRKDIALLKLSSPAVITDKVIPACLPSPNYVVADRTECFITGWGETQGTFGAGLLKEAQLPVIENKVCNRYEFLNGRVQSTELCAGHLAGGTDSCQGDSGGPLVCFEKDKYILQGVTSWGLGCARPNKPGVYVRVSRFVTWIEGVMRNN
T3 sequence (P00747 97-580 partner limits assumed): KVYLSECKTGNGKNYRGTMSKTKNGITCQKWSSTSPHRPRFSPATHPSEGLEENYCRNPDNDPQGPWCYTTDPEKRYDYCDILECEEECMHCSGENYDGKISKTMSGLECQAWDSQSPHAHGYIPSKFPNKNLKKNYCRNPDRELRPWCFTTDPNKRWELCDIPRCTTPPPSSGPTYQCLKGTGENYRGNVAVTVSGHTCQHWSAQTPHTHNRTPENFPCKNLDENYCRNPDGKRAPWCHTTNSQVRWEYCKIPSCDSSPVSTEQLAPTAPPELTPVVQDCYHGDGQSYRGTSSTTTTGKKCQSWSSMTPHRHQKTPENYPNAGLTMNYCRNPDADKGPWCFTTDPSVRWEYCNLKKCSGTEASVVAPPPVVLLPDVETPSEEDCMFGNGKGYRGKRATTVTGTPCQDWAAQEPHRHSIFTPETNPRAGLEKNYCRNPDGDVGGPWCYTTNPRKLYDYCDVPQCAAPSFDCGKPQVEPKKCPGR
Description: as §2

Bovine trypsin = target: T4, Bovine trypsin (Bos taurus, UniProt P00760); assay: Kass with other serine proteases: trypsin; type: biochemical; conditions: substrate N-Benzoyl-Phe-Val-Arg-p-nitroanilide
T4 construct: Bovine trypsin is purchased from Worthington Biochemicals; purchased Worthington Biochemicals, Freehold, N.J
T4 sequence (P00760 24-246): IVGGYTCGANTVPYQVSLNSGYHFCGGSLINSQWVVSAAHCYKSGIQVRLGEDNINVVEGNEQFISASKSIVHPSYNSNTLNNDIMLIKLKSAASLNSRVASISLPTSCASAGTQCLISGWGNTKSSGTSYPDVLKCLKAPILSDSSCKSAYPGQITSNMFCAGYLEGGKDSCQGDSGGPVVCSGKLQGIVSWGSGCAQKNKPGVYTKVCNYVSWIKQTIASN
Description: as §3

[7] = mean over a range of test compound concentrations, […]

## CN[C@H](Cc1ccccc1)C(=O)N1CCC[C@H]1C(=O)N[C@H](C=O)CCCNC(=N)N.O=S(=O)(O)O [D-MePhe-Pro-Arg-H sulfate]
[1]
  anticoagulant in man: anticoagulant in man

## CCS(=O)(=O)N[C@H](Cc1ccccc1)C(=O)N1CCC[C@H]1C(=O)NCCCCN=C(N)N.Cl [Example 1, EtSO2 -D-Phe-Pro-Agm.HCl]
[2]
  % oral/i.v. activity (Rat): 8%
Human plasma [3]
  Human Plasma Anticoagulation 2× Clotting time (ng/mL) TT: 250 ng/mL

## Cl.Cl.N=C(N)c1ccc(CNC(=O)C2CC3CCCCC3N2C(=O)C2NCCC3CCCCC32)cc1 [Example 42, D-1-Piq-cis-Ohi-p-NHCH2 C6 H4 C(NH)NH2.2HCl]
Human thrombin; [7]
  Kass × 10^6 (L/mole) Human Thrombin: 38. × 10^6 L/mole
Human plasma [4]
  Human Plasma Anticoagulation 2× Clotting time (ng/mL) PT: 320 ng/mL
Human plasma [5]
  Human Plasma Anticoagulation 2× Clotting time (ng/mL) APTT: 270 ng/mL
Human plasma [3]
  Human Plasma Anticoagulation 2× Clotting time (ng/mL) TT: 20 ng/mL

## N=C(N)c1ccc(CNC(=O)[C@@H]2CCCN2C(=O)[C@@H](CC2CCCCC2)NCC(=O)O)cc1 [Example 48, HOOCCH2 -D-Cha-Pro-p-NHCH2 C6 H4 C(NH)NH2.HCl]
Human thrombin; [7]
  Kass × 10^6 (L/mole) Human Thrombin: 4,100 × 10^6 L/mole
[6]
  Kass × 10^6 (L/mole) t-PA: 0.05 × 10^6 L/mole
Human plasma [4]
  Human Plasma Anticoagulation 2× Clotting time (ng/mL) PT: 59 ng/mL
Human plasma [5]
  Human Plasma Anticoagulation 2× Clotting time (ng/mL) APTT: 33 ng/mL
Factor Xa
  Kass × 10^6 (L/mole) Xa: 5.5 × 10^6 L/mole
Human plasma [3]
  Human Plasma Anticoagulation 2× Clotting time (ng/mL) TT: 2. ng/mL
Human plasmin
  Kass × 10^6 (L/mole) Plasmin: 0.43 × 10^6 L/mole
Bovine trypsin
  Kass × 10^6 (L/mole) Trypsin: 250. × 10^6 L/mole

## Cl.Cl.Cl.N=C(N)NCCCCNC(=O)[C@@H]1CCCN1C(=O)[C@@H]1NCC[C@H]2CCCC[C@H]21 [Example 61, (4aR,8aR)-Perhydoisoquinoline-1(R)-carbonyl-Pro-Agm.3HCl]
Human thrombin; [7]
  Kass × 10^6 (L/mole) Human Thrombin: 63 × 10^6 L/mole
Human plasma [4]
  Human Plasma Anticoagulation 2× Clotting time (ng/mL) PT: 756 ng/mL
Human plasma [5]
  Human Plasma Anticoagulation 2× Clotting time (ng/mL) APTT: 679 ng/mL
Human plasma [3]
  Human Plasma Anticoagulation 2× Clotting time (ng/mL) TT: 45 ng/mL

## Nc1ccc(CNC(=O)[C@@H]2CCCN2C(=O)[C@@H](CC2CCCCC2)NCC(=O)O)c(F)c1 [Example 64, HO2 CCH2 -D-Cha-Pro-4-NHCH2 -3-F-C6 H3 NH2.HCl]
Human thrombin; [7]
  Kass × 10^6 (L/mole) Human Thrombin: 15 × 10^6 L/mole
Human plasma [4]
  Human Plasma Anticoagulation 2× Clotting time (ng/mL) PT: 650 ng/mL
Human plasma [5]
  Human Plasma Anticoagulation 2× Clotting time (ng/mL) APTT: 900 ng/mL
Human plasma [3]
  Human Plasma Anticoagulation 2× Clotting time (ng/mL) TT: 23 ng/mL

## CCS(=O)(=O)N[C@H](CC1CCCCC1)C(=O)N1CCC[C@H]1C(=O)NCc1ccc(N)cc1F [Example 82, EtSO2 -D-Cha-Pro-4-NHCH2 -3-F-C6 H3 NH2.HCl]
Human thrombin; [7]
  Kass × 10^6 (L/mole) Human Thrombin: 5.0 × 10^6 L/mole
Human plasma [4]
  Human Plasma Anticoagulation 2× Clotting time (ng/mL) PT: 3,000 ng/mL
Human plasma [5]
  Human Plasma Anticoagulation 2× Clotting time (ng/mL) APTT: 3,800 ng/mL
Human plasma [3]
  Human Plasma Anticoagulation 2× Clotting time (ng/mL) TT: 130 ng/mL

## N=C(N)c1ccc(CNC(=O)[C@@H]2CCCN2C(=O)[C@@H](CCc2ccccc2)NCC(=O)O)cc1 [Example 87, HOOCCH2 -D-hPhe-Pro-p-NHCH2 C6 H4 C(NH)NH2.HCl]
Human thrombin; [7]
  Kass × 10^6 (L/mole) Human Thrombin: 30 × 10^6 L/mole
Human plasma [4]
  Human Plasma Anticoagulation 2× Clotting time (ng/mL) PT: 310 ng/mL
Human plasma [5]
  Human Plasma Anticoagulation 2× Clotting time (ng/mL) APTT: 260 ng/mL
Human plasma [3]
  Human Plasma Anticoagulation 2× Clotting time (ng/mL) TT: 9 ng/mL

## CCS(=O)(=O)N[C@H](CC1CCCCC1)C(=O)N1CCC[C@H]1C(=O)NCc1ccc(C(=N)N)cc1F.Cl [Example 93, EtSO2 -D-Cha-Pro-4-NHCH2 -3-F-benzamidine.HCl]
Human thrombin; [7]
  Kass × 10^6 (L/mole) Human Thrombin: 970 × 10^6 L/mole
Human plasma [4]
  Human Plasma Anticoagulation 2× Clotting time (ng/mL) PT: 140 ng/mL
Human plasma [5]
  Human Plasma Anticoagulation 2× Clotting time (ng/mL) APTT: 35 ng/mL
Human plasma [3]
  Human Plasma Anticoagulation 2× Clotting time (ng/mL) TT: 5.9 ng/mL

## EtSO2 -D-Phe-Pro-p-NHCH2 --C6 H4 C(=NH)NH2.HCl [Example 23]
Human thrombin; [7]
  Kass × 10^6 (L/mole) Human Thrombin: 770 × 10^6 L/mole
Human plasma [4]
  Human Plasma Anticoagulation 2× Clotting time (ng/mL) PT: 120 ng/mL
Human plasma [5]
  Human Plasma Anticoagulation 2× Clotting time (ng/mL) APTT: 86 ng/mL
Human plasma [3]
  Human Plasma Anticoagulation 2× Clotting time (ng/mL) TT: 7 ng/mL

## EtSO2 -Phg-cis-Ohi-p-NHCH2 C6 H4 C(NH)NH2.HCl [Example 44]
Human thrombin
  Kass × 10^6 (L/mole) Human Thrombin: 630
Human plasma [4]
  Human Plasma Anticoagulation 2× Clotting time (ng/mL) PT: 170 ng/mL
Human plasma [5]
  Human Plasma Anticoagulation 2× Clotting time (ng/mL) APTT: 100 ng/mL
Human plasma [3]
  Human Plasma Anticoagulation 2× Clotting time (ng/mL) TT: 4. ng/mL
